Data: patent US9200051B2, “Peptide compound” (TAKEDA PHARMACEUTICAL COMPANY LIMITED, priority 2013, dated 2015)
Like-named read-outs stand apart in the source and are kept apart here. Square brackets hold non-standard residues; d marks the D form. Peptide text beside a SMILES is read from it. * marks the point of attachment. Cyclopropanecarbonyl = O=C(C1CC1)*; αMeF = C[C@](N)(Cc1ccccc1)C(=O)O; Cha = N[C@@H](CC1CCCCC1)C(=O)O; Aib = CC(C)(N)C(=O)O; Bz = O=C(c1ccccc1)*

Experiments:
Assay type in all cases: cell-based
[1] = molecular target: T1, human GIPR (Homo sapiens, UniProt P48546); test: Agonist activity against human GIPR, CRE-luciferase reporter assay (rise in intracellular cAMP) in hGIPR/CRE-LUC/CHO-K1 cells
T1 construct: expressed in transfected cells; host or cells: CHO-K1 (CRE-LUC/CHO-K1), plasmid hGIPR/pMSRα-neo
T1 sequence (P48546 22-466): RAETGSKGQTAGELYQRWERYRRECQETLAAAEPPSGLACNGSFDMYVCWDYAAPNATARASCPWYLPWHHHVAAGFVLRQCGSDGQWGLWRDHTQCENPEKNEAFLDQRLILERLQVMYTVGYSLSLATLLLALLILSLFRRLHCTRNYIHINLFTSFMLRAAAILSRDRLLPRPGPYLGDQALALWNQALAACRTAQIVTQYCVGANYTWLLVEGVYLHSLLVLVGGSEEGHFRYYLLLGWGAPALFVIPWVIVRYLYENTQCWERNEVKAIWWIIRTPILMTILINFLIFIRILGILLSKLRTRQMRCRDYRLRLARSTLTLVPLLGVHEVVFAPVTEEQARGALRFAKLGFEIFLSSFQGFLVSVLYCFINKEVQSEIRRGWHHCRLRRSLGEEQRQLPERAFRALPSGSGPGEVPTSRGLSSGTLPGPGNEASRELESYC

[2] = molecular target: T2, human GLP-1R (Homo sapiens, UniProt P43220); test: Agonist activity against human GLP-1R, CRE-luciferase reporter assay in hGLP-1R/CRE-luc/CHO-K1 cells
T2 construct: expressed in transfected cells; host or cells: CHO-K1, plasmids hGLP-1/pIRESneo3 and Cre-luc(Zeo)

[3] = molecular target: T3, human glucagon R (Homo sapiens, UniProt P47871); test: Agonist activity against human glucagon R, CRE-luciferase reporter assay in hGlucagonR/CRE-LUC/CHO-K1 cells
T3 construct: expressed in transfected cells; host or cells: CHO-K1 (CRE-LUC/CHO-K1), plasmid hGlucagonR/pMSRα-neo
T3 sequence (P47871 26-477): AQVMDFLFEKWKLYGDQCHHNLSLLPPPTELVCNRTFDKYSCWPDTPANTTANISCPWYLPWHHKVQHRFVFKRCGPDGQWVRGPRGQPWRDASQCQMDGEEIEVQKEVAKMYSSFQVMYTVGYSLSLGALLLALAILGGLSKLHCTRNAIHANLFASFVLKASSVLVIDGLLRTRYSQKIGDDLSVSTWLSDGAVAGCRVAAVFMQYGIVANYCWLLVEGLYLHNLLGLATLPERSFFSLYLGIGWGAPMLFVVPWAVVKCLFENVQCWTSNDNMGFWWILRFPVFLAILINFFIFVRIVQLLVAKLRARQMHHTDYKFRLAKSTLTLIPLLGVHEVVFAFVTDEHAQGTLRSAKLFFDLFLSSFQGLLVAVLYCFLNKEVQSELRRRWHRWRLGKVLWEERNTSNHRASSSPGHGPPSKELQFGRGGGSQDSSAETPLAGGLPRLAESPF

T2 sequence (P43220 24-463): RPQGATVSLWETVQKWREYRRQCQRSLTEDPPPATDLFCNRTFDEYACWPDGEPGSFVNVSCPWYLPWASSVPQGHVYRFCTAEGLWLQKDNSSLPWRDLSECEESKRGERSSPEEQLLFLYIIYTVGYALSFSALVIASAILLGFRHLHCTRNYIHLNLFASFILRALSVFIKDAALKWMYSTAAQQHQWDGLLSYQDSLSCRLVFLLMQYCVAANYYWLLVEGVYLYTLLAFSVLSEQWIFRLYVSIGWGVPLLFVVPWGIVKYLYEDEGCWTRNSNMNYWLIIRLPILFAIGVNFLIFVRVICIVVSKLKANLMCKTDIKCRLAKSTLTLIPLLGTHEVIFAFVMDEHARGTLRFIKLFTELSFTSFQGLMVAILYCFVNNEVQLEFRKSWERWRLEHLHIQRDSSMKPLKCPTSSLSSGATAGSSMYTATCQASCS

`CC[C@H](C)[C@H](NC(=O)[C@H](C)NC(=O)[C@H](Cc1ccc(O)cc1)NC(=O)[C@H](CC(=O)O)NC(=O)[C@H](CO)NC(=O)[C@@H](NC(=O)[C@](C)(Cc1ccccc1)NC(=O)[C@@H](NC(=O)CNC(=O)[C@H](CCC(=O)O)NC(=O)C(C)(C)NC(=O)[C@@H](N)Cc1ccc(O)cc1)[C@@H](C)O)[C@@H](C)O)C(=O)NC(C)(C)C(=O)N[C@@H](CC(C)C)C(=O)N[C@@H](CC(=O)O)C(=O)N[C@@H](CCCCN)C(=O)N[C@@H](CCC(N)=O)C(=O)N[C@@H](C)C(=O)N[C@@H](CCC(N)=O)C(=O)N[C@@H](C)C(=O)N[C@@H](CCC(=O)O)C(=O)N[C@@H](Cc1ccccc1)C(=O)N[C@H](C(=O)N[C@@H](CCCCN)C(=O)N[C@@H](Cc1c[nH]c2ccccc12)C(=O)N[C@@H](CC(C)C)C(=O)N[C@@H](CC(C)C)C(=O)N[C@@H](CCCCN)C(=O)NCC(=O)NCC(=O)N1CCC[C@H]1C(=O)N[C@@H](CO)C(=O)N[C@@H](CO)C(=O)NCC(=O)N[C@@H](C)C(=O)N1CCC[C@H]1C(=O)N1CCC[C@H]1C(=O)N1CCC[C@H]1C(=O)N[C@@H](CO)C(N)=O)C(C)C` [Example 5] (H-Y[Aib]EGT[αMeF]TSDYAI[Aib]LDKQAQAEFVKWLLKGGPSSGAPPPS-NH2) was tested, and the EC50 [1] was 0.0055 nM, the EC50 [2] was 0.0072 nM and the EC50 [3] was greater than 1000 nM.

With `CC(C)C[C@H](NC(=O)[C@H](CC(C)C)NC(=O)[C@H](Cc1c[nH]c2ccccc12)NC(=O)[C@H](CCCCN)NC(=O)[C@@H](NC(=O)[C@H](Cc1ccccc1)NC(=O)[C@H](CCC(=O)O)NC(=O)[C@H](C)NC(=O)[C@H](CCC(N)=O)NC(=O)[C@H](C)NC(=O)[C@H](CCC(N)=O)NC(=O)[C@H](CCCCN)NC(=O)[C@H](CC(=O)O)NC(=O)[C@H](CC(C)C)NC(=O)C(C)(C)NC(=O)[C@H](CCCCN)NC(=O)C(C)(C)NC(=O)[C@H](Cc1ccc(O)cc1)NC(=O)[C@H](CC(=O)O)NC(=O)[C@H](CO)NC(=O)[C@@H](NC(=O)[C@](C)(Cc1ccccc1)NC(=O)[C@@H](NC(=O)CNC(=O)[C@H](CCC(=O)O)NC(=O)C(C)(C)NC(=O)[C@@H](N)Cc1ccc(O)cc1)[C@@H](C)O)[C@@H](C)O)C(C)C)C(=O)N[C@@H](CCCCN)C(=O)NCC(=O)NCC(=O)N1CCC[C@H]1C(=O)N[C@@H](CO)C(=O)N[C@@H](CO)C(=O)NCC(=O)N[C@@H](C)C(=O)N1CCC[C@H]1C(=O)N1CCC[C@H]1C(=O)N1CCC[C@H]1C(=O)N[C@@H](CO)C(=O)N[C@@H](CCCCN)C(N)=O` [Example 9] (H-Y[Aib]EGT[αMeF]TSDY[Aib]K[Aib]LDKQAQAEFVKWLLKGGPSSGAPPPSK-NH2) the EC50 [1] was 0.008 nM, the EC50 [2] was 0.015 nM and the EC50 [3] was greater than 1000 nM.

Compound `CC[C@H](C)[C@H](NC(=O)C(C)(C)NC(=O)[C@H](Cc1ccc(O)cc1)NC(=O)[C@H](CC(=O)O)NC(=O)[C@H](CO)NC(=O)[C@@H](NC(=O)[C@](C)(Cc1ccccc1)NC(=O)[C@@H](NC(=O)CNC(=O)[C@H](CCC(=O)O)NC(=O)C(C)(C)NC(=O)[C@H](Cc1ccc(O)cc1)NC(=O)C1CC1)[C@@H](C)O)[C@@H](C)O)C(=O)NC(C)(C)C(=O)N[C@@H](CC(C)C)C(=O)N[C@@H](CC(=O)O)C(=O)N[C@@H](CCCCN)C(=O)N[C@@H](CCC(N)=O)C(=O)N[C@@H](C)C(=O)N[C@@H](CCC(N)=O)C(=O)N[C@@H](C)C(=O)N[C@@H](CCC(=O)O)C(=O)N[C@@H](Cc1ccccc1)C(=O)N[C@H](C(=O)N[C@@H](CCCCN)C(=O)N[C@@H](Cc1c[nH]c2ccccc12)C(=O)N[C@@H](CC(C)C)C(=O)N[C@@H](CC(C)C)C(=O)N[C@@H](CCCCN)C(=O)NCC(=O)NCC(=O)N1CCC[C@H]1C(=O)N[C@@H](CO)C(=O)N[C@@H](CO)C(=O)NCC(=O)N[C@@H](C)C(=O)N1CCC[C@H]1C(=O)N1CCC[C@H]1C(=O)N1CCC[C@H]1C(=O)N[C@@H](CO)C(=O)N[C@@H](CCCCN)C(N)=O)C(C)C` [Example 21] (Cyclopropanecarbonyl-Y[Aib]EGT[αMeF]TSDY[Aib]I[Aib]LDKQAQAEFVKWLLKGGPSSGAPPPSK-NH2) has an EC50 ([1]; hGIPR/CRE-LUC/CHO-K1 cells, 4 hours incubation, 10 nM GIP = 100%, read-out: Agonist activity (EC50) hGIPR) of 0.024 nM, an EC50 ([2]; hGLP-1R/CRE-luc/CHO-K1 cells, 4 hours incubation, 10 nM GLP-1 = 100%, read-out: Agonist activity (EC50) hGLP-1R) of 0.055 nM and an EC50 ([3]; hGlucagonR/CRE-LUC/CHO-K1 cells, 4 hours incubation, 10 nM glucagon = 100%, read-out: Agonist activity (EC50) hGCGR) greater than 1000 nM.

`CC[C@H](C)[C@H](NC(=O)C(C)(C)NC(=O)[C@H](Cc1ccc(O)cc1)NC(=O)[C@H](CC(=O)O)NC(=O)[C@H](CO)NC(=O)[C@@H](NC(=O)[C@](C)(Cc1ccccc1)NC(=O)[C@@H](NC(=O)CNC(=O)[C@H](CCC(=O)O)NC(=O)C(C)(C)NC(=O)[C@@H](N)Cc1ccc(O)cc1)[C@@H](C)O)[C@@H](C)O)C(=O)NC(C)(C)C(=O)N[C@@H](CC(C)C)C(=O)N[C@@H](CC(=O)O)C(=O)N[C@@H](CCCCN)C(=O)N[C@@H](CCC(N)=O)C(=O)N[C@@H](C)C(=O)N[C@@H](CCC(N)=O)C(=O)N[C@@H](CO)C(=O)N[C@@H](CCC(=O)O)C(=O)N[C@@H](Cc1ccccc1)C(=O)N[C@H](C(=O)N[C@@H](CCCCN)C(=O)N[C@@H](Cc1c[nH]c2ccccc12)C(=O)N[C@@H](CC(C)C)C(=O)N[C@@H](CC(C)C)C(=O)N[C@@H](CCCCN)C(=O)NCC(=O)NCC(=O)N1CCC[C@H]1C(=O)N[C@@H](CO)C(=O)N[C@@H](CO)C(=O)NCC(=O)N[C@@H](C)C(=O)N1CCC[C@H]1C(=O)N1CCC[C@H]1C(=O)N1CCC[C@H]1C(=O)N[C@@H](CO)C(=O)N[C@@H](CCCCN)C(N)=O)C(C)C` [Example 4] (H-Y[Aib]EGT[αMeF]TSDY[Aib]I[Aib]LDKQAQSEFVKWLLKGGPSSGAPPPSK-NH2) showed an EC50 [1] of 0.0049 nM, an EC50 [2] of 0.0099 nM and an EC50 [3] greater than 1000 nM.

With `CC[C@H](C)[C@H](NC(=O)C(C)(C)NC(=O)[C@H](Cc1ccc(O)cc1)NC(=O)[C@H](CC(=O)O)NC(=O)[C@H](CO)NC(=O)[C@@H](NC(=O)[C@](C)(Cc1ccccc1)NC(=O)[C@@H](NC(=O)CNC(=O)[C@H](CCC(=O)O)NC(=O)C(C)(C)NC(=O)[C@@H](N)Cc1ccc(O)cc1)[C@@H](C)O)[C@@H](C)O)C(=O)N[C@@H](CC1CCCCC1)C(=O)N[C@@H](CC(C)C)C(=O)N[C@@H](CC(=O)O)C(=O)N[C@@H](CCCCN)C(=O)N[C@@H](CCC(N)=O)C(=O)N[C@@H](C)C(=O)N[C@@H](CCC(N)=O)C(=O)N[C@@H](C)C(=O)N[C@@H](CCC(=O)O)C(=O)N[C@@H](Cc1ccccc1)C(=O)N[C@H](C(=O)N[C@@H](CCCCN)C(=O)N[C@@H](Cc1c[nH]c2ccccc12)C(=O)N[C@@H](CC(C)C)C(=O)N[C@@H](CC(C)C)C(=O)N[C@@H](CCCCN)C(=O)NCC(=O)NCC(=O)N1CCC[C@H]1C(=O)N[C@@H](CO)C(=O)N[C@@H](CO)C(=O)NCC(=O)N[C@@H](C)C(=O)N1CCC[C@H]1C(=O)N1CCC[C@H]1C(=O)N1CCC[C@H]1C(=O)N[C@@H](CO)C(=O)N[C@@H](CCCCN)C(N)=O)C(C)C` [Example 14] (H-Y[Aib]EGT[αMeF]TSDY[Aib]I[Cha]LDKQAQAEFVKWLLKGGPSSGAPPPSK-NH2) the EC50 [1] was 0.013 nM, the EC50 [2] was 0.021 nM and the EC50 [3] was greater than 1000 nM.

`CC[C@H](C)[C@H](NC(=O)C(C)(C)NC(=O)[C@H](Cc1ccc(O)cc1)NC(=O)[C@H](CC(=O)O)NC(=O)[C@H](CO)NC(=O)[C@@H](NC(=O)[C@](C)(Cc1ccccc1)NC(=O)[C@@H](NC(=O)CNC(=O)[C@H](CCC(=O)O)NC(=O)C(C)(C)NC(=O)[C@H](Cc1ccc(O)cc1)NC(=O)c1ccccc1)[C@@H](C)O)[C@@H](C)O)C(=O)NC(C)(C)C(=O)N[C@@H](CC(C)C)C(=O)N[C@@H](CC(=O)O)C(=O)N[C@@H](CCCCN)C(=O)N[C@@H](CCC(N)=O)C(=O)N[C@@H](C)C(=O)N[C@@H](CCC(N)=O)C(=O)N[C@@H](C)C(=O)N[C@@H](CCC(=O)O)C(=O)N[C@@H](Cc1ccccc1)C(=O)N[C@H](C(=O)N[C@@H](CCCCN)C(=O)N[C@@H](Cc1c[nH]c2ccccc12)C(=O)N[C@@H](CC(C)C)C(=O)N[C@@H](CC(C)C)C(=O)N[C@@H](CCCCN)C(=O)NCC(=O)NCC(=O)N1CCC[C@H]1C(=O)N[C@@H](CO)C(=O)N[C@@H](CO)C(=O)NCC(=O)N[C@@H](C)C(=O)N1CCC[C@H]1C(=O)N1CCC[C@H]1C(=O)N1CCC[C@H]1C(=O)N[C@@H](CO)C(=O)N[C@@H](CCCCN)C(N)=O)C(C)C` [Example 19] (Bz-Y[Aib]EGT[αMeF]TSDY[Aib]I[Aib]LDKQAQAEFVKWLLKGGPSSGAPPPSK-NH2) gave an EC50 [1] of 0.024 nM, an EC50 [2] of 0.037 nM and an EC50 [3] greater than 1000 nM.
